Test system: flowering quince fruit
Assay: Headspace volatile emissions of flowering quince fruit treated with AHAS inhibitor
Type: in vivo, Chaenomeles x superba
Design: key to butyl acetate emissions compared to control: —: Dash indicates no significant difference between treatments
Procedure: Whole apple fruit, freshly harvested and at an early stage of ripening (‘ripening’), were held at room temperature (22° C.) and rubbed daily with 3 mL of a freshly made 1mM solution of the inhibitor rimsulfuron (N-((4,6-dimethoxypyrimidin-2-yl)aminocarbonyl)-3-(ethylsulfonyl)-2-pyridinesulfonamide, made from DuPont MATRIX® SG, 25% w/w active ingredient; 0.1% Tween 20) or water solution containing 0.1% Tween 20 before preparation with further treatments. Flowering quince fruit were smaller than the apple fruit and had 2 mL of the control and treatment solutions applied daily at 22° C. ‘Gala’, ‘Empire’, and ‘Jonagold’ apple fruit were treated for four, nine, and seven days before further preparation, respectively. Flowering quince fruit were treated for six days before analysis. Headspace volatile emissions were monitored for three or four representative fruits during the incubation/treatment period to determine appropriate times for further treatments. During method testing, 1 mM solutions of the imidazolinone imazamox was also assessed with apple fruit (2-[4,5-dihydro-4-methyl-4-(1-methylethyl)-5-oxo-1H-imidazol-2-yl]-5-(methoxymethyl)-3-pyridinecarboxylic acid, made from RAPTOR®, 12.1% w/w active ingredient; 0.1% Tween 20).
Headspace volatiles from small tissue samples incubated in 22 mL vials were adsorbed for 30 s using a solid-phase micro extraction (SPME) fiber (65 μm PDMS-DVB; Supelco Analytical). The SPME fiber was then directly desorbed for 1 min in the injection port of a gas chromatograph (GC; HP-6890, Hewlett-Packard) coupled to a time-of-flight mass spectrometer (MS; Pegasus II, LECO). Whole fruits and banana slices were incubated for 20 min at room temperature (22° C.) in 1-L sealed Teflon jars before a 15-s, or 3-min adsorption and 1- or 2-min desorption. Adsorption times were adjusted to ensure instrument responses were in the linear range. All desorbed volatiles were cryofocused at the beginning of the column by immersing said region of the column in liquid nitrogen. After the desorption period, the run was initiated and the liquid nitrogen removed.
The conditions of the system were as follows. Injection port: 200° C., splitless, ultra-purified helium (99.999%) carrier gas, front inlet flow 1.5 mL·min^−1 constant, 10 mL·min^−1 purge flow, 11.5 mL·min^−1 total flow. Oven: initial temperature 40° C. for 0 min, ramped by 43° C.·min^−1 to 185° C. for 0 min. Column: HP-5 MS, 30 m×0.25 mm i.d., 0.25 μm film thickness (Agilent). Transfer line temperature 225° C. MS: Electron ionization (−70 eV), ion source temperature 200° C., solvent delay 50 sec, m/z range 29 to 400, detector voltage 1500 V, data collection rate 20 Hz.
Compounds were identified by comparison of the retention time and mass spectrum against authenticated reference standards and spectra (National Institute of Standards and Technology Mass Spectral Search Program Version 2.0, 2001). Volatiles were quantified by calibration with a standard of 59 authenticated, high-purity compounds (Sigma-Aldrich Co. and Fluka Chemical) including the target compounds. The standard was made by placing 0.5 μL of an equal-part mixture of the neat compounds onto a disc of filter paper before quickly placing the filter paper into a 4-L sealed flask fitted with a Mininert valve (for SPME fiber access, and allowed to vaporize for at least 6 hours. SPME adsorption and desorption times of the standard matched that of the samples quantified (e.g., 30-s adsorption, 1 min desorption when quantifying samples in 22-mL vials).
Statistical analysis was performed using SciPy (v1.6.2), RStudio (v2023.03.0+386), or Microsoft Excel (v16.89). Against a specified value: one-tailed t-test Against two treatments: paired t-test for banana, two-sample t-test for apple and flowering quince. Against more than two treatments: Tukey's test following significant ANOVA. Analyses of branched-chain amino acids were one-tailed, all other metabolites were two-tailed. […]

[1] = Dr. Banks Pink flowering quince
[2] = Dr. Banks Pink flowering quince peel, 1 mM daily, six days

**Q.** With `CCS(=O)(=O)c1cccnc1S(=O)(=O)NC(=O)Nc1nc(OC)cc(OC)n1` [rimsulfuron, N-((4,6-dimethoxypyrimidin-2-yl)aminocarbonyl)-3-(ethylsulfonyl)-2-pyridinesulfonamide] as the compound, how does the “butyl acetate, ethyl butanoate, estragole, or linalool versus untreated” value [1] read?
**A.** No difference

**Q.** And the “less 2-methylpropyl acetate and 2-methylbutyl acetate than untreated fruits” value [1]?
**A.** 94.6%

**Q.** What about the “more propyl acetate than untreated fruits” value [1] of the same compound?
**A.** 22.7 fold

**Q.** And the “2-methylbutyl acetate (ile) emissions compared to control” value [2]?
**A.** 5.2 ± 3.9%

**Q.** What about the “2-methylpropyl acetate (val) emissions compared to control” value [2] of the same compound?
**A.** 1.1 ± 1.4%

**Q.** What about the “butyl acetate emissions compared to control” value [2] of the same compound?
**A.** —

**Q.** What about the “propyl acetate emissions compared to control” value [2] of the same compound?
**A.** 2265.0 ± 869.0%

**Q.** And the “sum of anteiso- and iso-branched-chain esters emissions compared to control” value [2]?
**A.** 3.0 ± 2.4%
